Results reported in publication PMC4303311 (Biochemistry, 2014).

Target: T1, bacteriorhodopsin (BR) (Halobacterium salinarum, UniProt P02945)
T1 sequence (P02945 14-262): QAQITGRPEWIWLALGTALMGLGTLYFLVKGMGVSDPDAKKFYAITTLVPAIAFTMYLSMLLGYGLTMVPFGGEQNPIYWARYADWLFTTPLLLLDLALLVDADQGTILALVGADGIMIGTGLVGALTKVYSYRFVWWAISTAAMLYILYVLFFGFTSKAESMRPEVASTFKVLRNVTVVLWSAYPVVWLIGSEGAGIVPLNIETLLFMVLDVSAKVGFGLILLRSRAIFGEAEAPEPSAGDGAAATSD
Test: low-temperature FTIR-difference spectroscopy
Type: binding
Conditions: covalent; protonated Schiff base; 80 K; native purple membrane

## CC1=C(/C=C/C(C)=C/C=C/C(C)=C/C=O)C(C)(C)CCC1 [A1 retinal, all-trans-retinal]
  low-temperature FTIR-difference spectroscopy: Negative bands appear at similar frequencies in the FTIR-difference spectrum of CaChR1 and BR
